“Also recorded” adds a separate entry of the source.
Assays:
C2C12 mouse myoblasts = assay: Mitochondrial membrane potential by relative JC-1 fluorescence; format: cell-based; conditions: C2C12 cells, 24 h; for Increase in mitochondrial membrane potential: vs. control
From the text: The objective of the experiment was to investigate whether and how mitochondrial energy production in myoblasts is affected by hydroxytyrosol alone or in combination with other compounds. For energy production, the mitochondrial electron transport chain generates a proton gradient across the […], creating a membrane potential that powers the synthesis of ATP by the ATP synthase complex. […] If a critical concentration is reached, JC-1 forms aggregates, which changes its fluorescence properties from green to red fluorescence. […] An increased mitochondrial membrane potential indicates an improved energetic state and increased capability to generate ATP and provide energy for other cellular components. […] C2C12 cells were seeded into a 96-well cell culture plate at 1000 cells/well and cultured in growth medium (Dulbecco's modified eagle medium (DMEM) supplemented with 10% fetal bovine serum) in a standard incubator (humidified, 37° C., 5% CO2) for 24 h. […] […] After 24 h of treatment, cells were incubated with medium containing JC-1 (2 ug/ml) for 30 min at 37° C., then the staining solution was removed, DMEM without phenol red was added, and green fluorescence (ex 485 nm/em 538 nm) and red fluorescence (ex 544 nm/em 590 nm) was measured using a fluorescence plate reader (SpectraMax M5). The ratio of red to green fluorescence in each well was determined and the average and standard deviation of the quadruplicate treatments were calculated.

PGC-1α = PGC-1α protein level in adipocytes (Western blot, densitometry); format: cell-based, murine; conditions: 3T3-L1 adipocytes; hydroxytyrosol 1.0 μM; vs. control
Experimental: Murine 3T3-L1 pre-adipocytes (American Type Culture Collection) were cultured in Dulbecco's Modified Eagle's Medium (DMEM) supplemented with 10% fetal bovine serum and allowed to reach confluence. Differentiation of pre-adipocytes was initiated with 1 μM insulin, 0.25 μM dexamethasone and 0.5 mM 3-isobutyl-1-methylxanthine in DMEM, supplemented with 10% fetal bovine serum. After 48 h, the culture medium was replaced with DMEM supplemented with 10% fetal bovine serum and 1 μM insulin. The culture medium was changed every other day with DMEM containing 10% fetal bovine serum. […] After treatment, cells were washed twice with ice-cold PBS, lysed in sample buffer (62.5 mM Tris-Cl pH 6.8, 2% SDS, 5 mM DTT) at room temperature and vortexed. Cell lysates were then boiled for 5 minutes and cleared by centrifugation (13,000 rpm, 10 minutes at 4° C.). Protein concentration was determined using the Bio-Rad DC protein assay. The soluble lysates (10 μg per lane) were subjected to 10% SDS-PAGE, proteins were then transferred to nitrocellulose membranes and blocked with 5% non-fat milk/TBST for 1 h at room temperature. […] Western blots were developed using ECL (Roche Manheim, Germany) and quantified by scanning densitometry.

[1] = test system: mitochondrial electron transport complex I; assay: Mitochondrial complex I protein expression in adipocytes (Western blot); format: cell-based, murine; conditions: 3T3-L1 adipocytes, 48 hrs, vs. control
Experimental: Murine 3T3-L1 pre-adipocytes (American Type Culture Collection) were cultured in Dulbecco's Modified Eagle's Medium (DMEM) supplemented with 10% fetal bovine serum and allowed to reach confluence. Differentiation of pre-adipocytes was initiated with 1 μM insulin, 0.25 μM dexamethasone and 0.5 mM 3-isobutyl-1-methylxanthine in DMEM, supplemented with 10% fetal bovine serum. After 48 h, the culture medium was replaced with DMEM supplemented with 10% fetal bovine serum and 1 μM insulin. The culture medium was changed every other day with DMEM containing 10% fetal bovine serum. […] After treatment, cells were washed twice with ice-cold PBS, lysed in sample buffer (62.5 mM Tris-Cl pH 6.8, 2% SDS, 5 mM DTT) at room temperature and vortexed. Cell lysates were then boiled for 5 minutes and cleared by centrifugation (13,000 rpm, 10 minutes at 4° C.). Protein concentration was determined using the Bio-Rad DC protein assay. The soluble lysates (10 μg per lane) were subjected to 10% SDS-PAGE, proteins were then transferred to nitrocellulose membranes and blocked with 5% non-fat milk/TBST for 1 h at room temperature. Membranes were incubated with primary antibodies directed against PPAR-γ (1:1000), PGC-1α (1:1000), α-tubulin (1:10 000), Complex I (1:2000), Complex II (1:2000), Complex III (1:2000) and Complex V (1:2000) in 5% milk/TBST at 4° C. overnight. After washing membranes with TBST three times, membranes were incubated with horseradish peroxidase-conjugated secondary antibody for 1 h at room temperature. Western blots were developed using ECL (Roche Manheim, Germany) and quantified by scanning densitometry.

C[N+](C)(C)C[C@H](O)CC(=O)[O-] [L-carnithine]
Effect on mitochondrial membrane potential (red/green JC-1 fluorescence ratio) (C2C12 mouse myoblasts; 200 uM alone): no significant effect
Increase in mitochondrial membrane potential (C2C12 mouse myoblasts; 200 μM alone): 0%

NC(=O)c1ncn([C@@H]2O[C@H](CO)[C@@H](O)[C@H]2O)c1N [AICAR, aminoimidazole carboxamide ribonucleotide]
Effect on mitochondrial membrane potential (red/green JC-1 fluorescence ratio) (C2C12 mouse myoblasts; 500 uM): increase in mitochondrial potential; also recorded: increase mitochondrial membrane potential
Increase in mitochondrial membrane potential (C2C12 mouse myoblasts; 500 μM): 16%

Cn1c(=O)c2c(ncn2C)n(C)c1=O [Caffeine, caffeine]
Effect on mitochondrial membrane potential (red/green JC-1 fluorescence ratio) (C2C12 mouse myoblasts; 200 uM alone): no significant effect
Increase in mitochondrial membrane potential (C2C12 mouse myoblasts; 200 μM alone): −4%

OCCc1ccc(O)c(O)c1 [Hydroxytyrosol, 3,4-dihydroxyphenylethanol]
PGC-1α protein expression (PGC-1α:α-tubulin ratio), maximum (PGC-1α): 205±52%
Effect on mitochondrial membrane potential (red/green JC-1 fluorescence ratio) (C2C12 mouse myoblasts; 1 uM): no significant effect
Increase in mitochondrial membrane potential (C2C12 mouse myoblasts; 1 μM): 1%
Increase in mitochondrial membrane potential (C2C12 mouse myoblasts; 10 μM): 11%
Mitochondrial electron transport complex I protein ([1]; 0.1 μM): 131±16%
Mitochondrial electron transport complex I protein ([1]; 1.0 μM): 163±31%
Mitochondrial electron transport complex I protein ([1]; 10.0 μM): 138±21%
